Results taken from a melting point compilation (Tetko et al.; mined from patent text by program, amines drawn as free bases though some values may be those of a salt).

Row | SMILES | melting point
1 | CCCCOc1c(CN2C(=O)c3ccccc3C2=O)n(CCC(=O)N2CCCC2)c(=O)c2cc(Cl)c(Cl)cc12 | 222 °C
2 | CCOC(=O)c1ccc(OCC(=NO)c2ccc3c(c2)C(C)(C)CCC3(C)C)cc1O | 130 °C
3 | CON1Cc2c(cc3ccc4c(c3c2-c2ccc3c(c2)OCO3)OCO4)C1=O | 214 to 216 °C
4 | NC(C(=O)O)C1CC(C(=O)O)C1C(=O)O (stereo unspecified) | 205 to 209 °C
5 | Fc1ccc2[nH]c3c(c2c1)CCNC3c1ccc2c(c1)OCO2 (stereo unspecified) | 172 °C
6 | Cc1ccc2c(c1)C(C)(C)[C@@H](C)[C@H](C)C2(C)C (relative stereo) | 65 to 66 °C
7 | COC1=C(OC)C(=O)NC1=O | 126 to 127 °C
8 | CC12CC(F)C3C4CCC(=O)C=C4CC(CCCCCCl)C3C1CCC2=O (stereo unspecified) | 51 to 53 °C
9 | C=C1C(O)C(CO)OC1n1cc(CC)c(=O)[nH]c1=O (stereo unspecified) | 137 to 139 °C
10 | C(#CCOCC#CCCn1cnc2cnc3ccccc3c21)CCn1cnc2cnc3ccccc3c21 | 124 to 126 °C
11 | COP(=O)(OC)C1CC(c2ccc([N+](=O)[O-])cc2)=NO1 (stereo unspecified) | 156 to 158 °C
12 | Cc1c(O)c(=O)ccn1C(C)C | 239 to 242 °C
13 | Cc1cc(F)c(Br)cc1CC(=O)O | 100 to 101 °C
14 | CC(C)(C)OC(=O)c1ccc(N)cc1F | 100 to 101 °C
15 | Cc1cc2c(cc1S(=O)(=O)c1cc(Cl)ccc1Cl)OC(C(=O)O)O2 (stereo unspecified) | 155 to 157 °C
16 | CCc1n[nH]c(CC)c1CCCCCCOc1ccc(Br)cc1 | 31 to 33 °C
17 | CC(C)(C)OC(=O)N[C@H]1CC[C@H](CC(=O)O)CC1 | 161 to 163 °C
18 | CC1(C)OC(=S)Nc2ccc(-c3cc(F)cc(F)c3)cc21 | 224 to 225 °C
19 | Cc1ccc(S(=O)(=O)Oc2ccc(S(=O)(=O)C3(C(=O)C(C)C)CC3)cc2)cc1 | 106 to 107 °C
20 | Cn1ncc(S(N)(=O)=O)c1C1=NOCCO1 | 126 to 130 °C
21 | CN1CCN(C(=O)c2ccc(-c3[nH]nc4c3C(=O)c3c(NC(=O)NC5CNCCO5)cccc3-4)s2)CC1 (stereo unspecified) | 190 °C
22 | CN(C)CCNC1=CC(=O)c2oc(-c3cc(F)ccc3F)nc2C1=O | 181 to 182 °C
23 | CCC(=O)COc1cc(N)c(Cl)cc1C(=O)NCCN(CC)CC | 103 to 104 °C
24 | Cc1ccc(S(=O)(=O)N2CC3=C(CNCC3)C2)cc1 | 201 °C

Row | SMILES | melting point
25 | O=c1[nH]c2ccc(C3=NOC(CN4CCC(S(=O)c5ccc(F)cc5)CC4)C3)cc2o1 (stereo unspecified) | 170 to 178 °C
26 | NS(=O)(=O)c1ccc(C=O)cc1 | 104 to 106 °C
27 | Cc1ccc(S(=O)(=O)c2ccc3c(c2)c(CCN(C)C(=O)OC(C)(C)C)c(C)n3C)cc1 | 129 to 133 °C
28 | Cc1cc2c(cc1C(O)c1c(C(F)(F)F)ccnc1Cl)OCO2 (stereo unspecified) | 127 to 130 °C
29 | CN1C(=O)CN(CCC(=O)O)C1=O | 109 °C
30 | Cc1cc(OCCCCCCCCNC(=O)c2cc(-c3cccc(Cl)c3)c(OCC(=O)O)c(-c3cccc(Cl)c3)c2)ccc1F | 138 to 140 °C
31 | COC1OCC[C@@H]1NC(=O)[C@H](CC(C)C)NC(=O)[C@H](CC(C)C)NC(=O)[C@H](CC(C)C)NC(=O)OCc1ccccc1 (stereo partly specified) | 210 to 212 °C
32 | N#Cc1c(N2CCNCC2)c(F)cc2c(=O)c(C(=O)O)cn(C3CC3)c12 | > 300 °C
33 | CSc1noc(-c2ccc(O)cc2)c1C#N | 194 to 196 °C
34 | CC=CCn1c(C)c(C)c2cnnc(OCc3ccc(F)cc3F)c21 | 93 to 95 °C
35 | CN(C)CCCNS(=O)(=O)c1cccc([N+](=O)[O-])c1 | 84 to 87 °C
36 | O=C(O)c1ccc2c(c1)nc(-c1ccc(Oc3cccc(OCc4ccncc4)c3)cc1)n2C1CCCCC1 | 235 to 237 °C
37 | O=C1c2c(Cl)cccc2-n2cnc(-c3noc(CN(Cc4ccccc4)Cc4ccccc4)n3)c2[C@@H]2CCCN12 | 107 to 109 °C
38 | CCCc1cc(CCC)n2nc(N3CCN(C(=O)OCC)CC3)nc2n1 | 130 to 132 °C
39 | Cc1nc2cccc3c(=O)n(CCCCNS(=O)(=O)C(F)(F)F)c(=O)c1n23 | 181 to 182 °C
40 | Cc1noc([C@H]2CC[C@@](C)(NCC(=O)N3C[C@@H](F)C[C@H]3C#N)C2(C)C)n1 | 147 to 151 °C
41 | Nc1cc([N+](=O)[O-])cc(CCO)c1N | 172 °C
42 | Cc1cnn(-c2cc(F)c(C#N)cc2F)c(=O)c1 | 223 °C
43 | Cc1cc(C)cc(-c2cnn3c(-c4cccc(-c5nnn(CC6CCC6)n5)c4)ccnc23)c1 | 64 °C
44 | O=C1CC(O)CN1S(=O)(=O)c1ccc(N2CCCCC2)cc1 (stereo unspecified) | 158 to 159 °C
45 | N#Cc1ccc2cc(CCCCc3cc4ccc(C#N)cc4o3)oc2c1 | 215 to 217 °C
46 | CN(CCO)C(=O)C(C)(C)NC(=O)c1cc2c(n(CC3CCCCC3)c1=O)CCCCCC2 | 195 to 196 °C
47 | Cc1nnc(-c2ccc3occ(-c4ccc(S(C)(=O)=O)c(C)c4)c3c2)o1 | 173 to 174 °C
48 | C#CCNC(NCCSCc1[nH]cnc1C)=C(C#N)C(N)=O | 88 to 94 °C

The remaining lines, values ahead:

Row | melting point | SMILES
49 | 141 to 145 °C | Cc1ccc(S(=O)(=O)Oc2c(C(=O)c3ccc(S(C)(=O)=O)cc3Cl)cnn2C)cc1
50 | 166 to 167 °C | CC(C#N)(NC(=O)c1c(Cl)cccc1Cl)c1ncc(C(F)(F)F)cc1Cl (stereo unspecified)
51 | 295 to 296 °C | O=C1c2cc(F)ccc2-n2c1nc1ccc(F)cc1c2=O
52 | 204 to 209 °C | CONC(=O)Nc1ccc(-c2sc3c(c2CCl)c(=O)n(-c2ccc4c(c2)OCCO4)c(=O)n3Cc2c(F)cccc2F)cc1
53 | 134 to 136 °C | Cc1c(Cl)nn(C(C)(C)C(=O)N(C)C)c1-c1ccccc1
54 | 146 to 147 °C | CC(C)(C)n1c(=O)[nH]c2ccccc21
55 | 163 to 165 °C | CC(=NOc1ncc(F)c(N)n1)c1ccccc1
56 | 123 to 126 °C | CCOc1cc2c(-c3ccnc(Cl)c3)c(CO)c(CO)cc2cc1OC
57 | 186 °C | COc1ccccc1CC1NC(=O)NC1=O (stereo unspecified)
58 | 212 to 214 °C | CCOC(=O)c1cn(-c2ccc(OC)cc2)c2cc(F)c(F)cc2c1=O
59 | 250 °C | Cn1nc(C2CCN(CCn3c(=O)[nH]c4ccccc4c3=O)CC2)c2ccc(F)cc21
60 | 156 to 158 °C | Cc1c(NC(=O)c2ccc(OC[C@@H]3CCCO3)cc2)ccc2cc(CNCC3CC3)cnc12
61 | 228 °C | c1ccn(Nc2ccc(N3CCOCC3)nn2)c1
62 | 141 °C | CCc1nn(C(=O)Oc2ccccc2)c(=O)n1C
63 | 149 to 151 °C | CCCCC1c2ccccc2-c2ccccc2N1S(=O)(=O)c1ccc(O)cc1 (stereo unspecified)
64 | 179 to 180 °C | CC(C)(C)C(NC(=O)CCc1cccnc1)Nc1c(Nc2cccnc2Cl)c(=O)c1=O (stereo unspecified)
65 | 205 to 207 °C | Cn1cnc2c(Cl)ncnc21
66 | 192 to 193 °C | Cc1nc(-c2ncn3c2c(C)nc2ccccc23)no1
67 | 61 to 63 °C | CCC(=O)NCCC1=CCc2ccc(OC)cc21
68 | 137 to 138 °C | COC(=O)N1c2ccccc2Sc2nccnc21
69 | 100 °C | CN(C)c1ccccc1SCc1noc(-c2ccccc2)n1
70 | 162 to 164 °C | CCCCCCCNC(=O)Nc1ccccc1C=Cc1cc(C(C)(C)C)c(O)c(C(C)(C)C)c1
71 | 136 to 138 °C | CN(Cc1ccccc1)C(=O)c1c(-c2ccncc2)c(-c2ccc(F)cc2)nn1CCO
72 | 65 to 66 °C | CCOC(=O)C(C(=O)OCC)c1ccc(OCc2ccccc2)cc1
73 | 131 °C | CCOc1ccc(C=CC(=O)c2c(O)cc(OCC)cc2OCC)cc1
74 | 116 to 118 °C | O=C(Nc1cc(F)c(N2CC(=O)N(COC3CCCCO3)C2)c(F)c1)OCc1ccccc1 (stereo unspecified)
75 | 247 to 249 °C | CC=CC(=O)Nc1ccc(-c2ccncc2)cc1

Row | melting point | SMILES
76 | 226 to 227 °C | CC(=O)NC1(CNS(=O)(=O)c2ccccc2)CCN(C(=O)OC(C)(C)C)CC1
77 | 216 to 218 °C | CCOc1ccc(C(=O)N2CCc3cc(S(=O)(=O)N4CC(c5ccccc5)NC4=O)ccc32)cc1 (stereo unspecified)
78 | 176 to 178 °C | COc1ccc(CC2SC(=O)NC2=O)cc1C(=O)NCc1ccc(C(F)(F)F)cc1 (stereo unspecified)
79 | 160 to 165 °C | Cn1nnnc1C(F)(F)C(O)(Cn1cncn1)c1ccc(F)cc1F (stereo unspecified)
80 | 236 °C | O=c1cc2c(n[nH]1)-c1ccccc1CC2
81 | 146 to 148 °C | NC(=O)c1[nH]c2ccccc2c1-c1ccc(NC(=O)Nc2ccccc2F)cc1
82 | 73 to 74 °C | COc1nncc(-c2ccccc2)n1
83 | 300 to 302 °C | O=c1cc(-c2ccncc2)nc2[nH]c3ccccc3n12
84 | 143 to 144 °C | COc1cc(Nc2nccc(-c3ccc(CN)cc3)n2)cc(OC)c1OC
85 | 104 to 106 °C | COCCCNC(=O)c1cc(Br)c(OCc2ccccc2)cc1OCc1ccccc1
86 | 105 to 106 °C | Cc1cccc(NC(=N)Nc2cccc(C)c2)c1
87 | 153 to 154 °C | CN(c1cccc2cc(C3=NCC(CCO)S3)[nH]c12)S(=O)(=O)c1ccccc1C(F)(F)F (stereo unspecified)
88 | 138 to 140 °C | COC(=O)c1ccc(Cc2cccc3ccc(C#N)cc23)c(OC)c1
89 | 266 °C | N#Cc1c(N2CCN(C(=O)c3cccs3)CC2)c2cc(Cl)ccc2n(Cc2ccccc2)c1=O
90 | 157 to 158 °C | COc1cc(-c2ccccc2)n(-c2ccc(C)cc2)c1-c1ccccc1
91 | 144 to 145 °C | O=[N+]([O-])c1ccc(OCCc2ccc(CO)cn2)cc1
92 | 69 to 71 °C | CC(=Cc1ccccc1)c1ccc2c(c1)C(C)(C)CCN2C
93 | 71.5 to 73 °C | OCCCc1nc2ccccn2n1
94 | 185 °C | CC(=O)c1ccc2c(c1)Sc1cc(C(C)=O)c(Cl)cc1N2C
95 | 126 to 127 °C | CCOC(=O)C(NC(=O)c1ncn(Cc2ccccc2)c1[N+](=O)[O-])(OC)C(=O)OCC
96 | 168 to 169 °C | CC(C)N(O)C(=O)Nc1cccc(S(C)(=O)=O)c1
97 | 108 to 110 °C | CCOC(=O)c1c(N)sc2c1CCN(CCCc1ccccc1)C2
98 | 162 to 165 °C | CC(C(N)=O)c1ccc2c(c1)CCc1cccnc1O2 (stereo unspecified)
99 | 237 to 238 °C | Cc1cccc(C)c1CNc1cc(S(=O)(=O)N(C)C)cc2c1nc(C)n2C
100 | 34 to 37 °C | CCOC(=O)CCCCCNc1ccccc1
101 | 152 to 154 °C | Oc1ccc2ccc(OCc3ccccc3)cc2c1
